Patent US11845730B2, “1,3-substituted cyclobutyl derivatives and uses thereof” (Novartis AG, priority 2021, dated 2023)
Counter-ions that a name gives are not always drawn.

What follows are compounds tested against human TRPV1 (Homo sapiens (Human), UniProt Q8NER1). Conditions: read-out: IC50 (μM), antagonist effect against human TRPV1; CHO cells expressing human TrpV1; stimulated with 2.5 μM NADA (EC80); mean of at least three independent experiments.
Chain of human TRPV1 (Q8NER1 whole entry): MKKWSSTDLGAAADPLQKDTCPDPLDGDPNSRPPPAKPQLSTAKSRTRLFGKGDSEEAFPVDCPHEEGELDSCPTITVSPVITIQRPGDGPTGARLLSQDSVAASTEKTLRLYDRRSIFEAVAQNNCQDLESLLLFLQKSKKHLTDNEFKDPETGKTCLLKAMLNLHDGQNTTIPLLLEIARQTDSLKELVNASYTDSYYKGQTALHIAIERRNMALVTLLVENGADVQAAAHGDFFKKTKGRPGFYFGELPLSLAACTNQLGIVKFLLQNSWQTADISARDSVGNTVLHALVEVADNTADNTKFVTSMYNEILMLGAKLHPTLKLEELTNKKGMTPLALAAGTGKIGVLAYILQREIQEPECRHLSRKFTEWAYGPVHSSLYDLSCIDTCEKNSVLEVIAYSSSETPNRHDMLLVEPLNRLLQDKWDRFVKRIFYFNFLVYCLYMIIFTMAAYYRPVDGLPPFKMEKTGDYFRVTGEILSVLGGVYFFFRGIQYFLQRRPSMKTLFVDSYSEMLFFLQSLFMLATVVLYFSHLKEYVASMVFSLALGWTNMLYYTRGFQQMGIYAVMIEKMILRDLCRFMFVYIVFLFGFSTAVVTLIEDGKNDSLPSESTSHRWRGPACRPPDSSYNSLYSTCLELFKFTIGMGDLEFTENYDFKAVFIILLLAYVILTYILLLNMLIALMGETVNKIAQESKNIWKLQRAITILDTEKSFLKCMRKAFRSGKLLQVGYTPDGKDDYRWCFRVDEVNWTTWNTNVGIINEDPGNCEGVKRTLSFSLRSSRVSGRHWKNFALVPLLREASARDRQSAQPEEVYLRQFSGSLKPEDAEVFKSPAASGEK
Description: Chinese Hamster Ovary (CHO) cells transfected to express human TrpV1 receptor (which are herein referred to as CHO-huTrpV1 cells), were grown in F-12 Ham's Nutrient Mixture media (HyClone SH30026.01) supplemented with 10% Fetal Bovine Serum (Invitrogen #26140-079), 1% Antibiotic/antimycotic (Invitrogen #15240-062) and 500 ug/mL geneticin (ThermoFisher scientific #1031035). Cells were grown in T-75 flasks at 37° C. incubator with 5% CO2. The cells were passaged twice a week at a ratio of 1:10 to 1:20 to maintain steady growth. For experimentation, cells were harvested at approximately 80% confluency and plated onto 384 well black cell culture plates (cat #781091, Greinier Bio-One Inc.) at 15,000 cells per well in 20 μl media and grown overnight.
The loading dye was prepared following instruction of Calcium 6 assay kit (Molecular Probes, #R8190): 10 ml buffer from bottle B was added to 1 vial of bottle A (adapted to room temperature from −20° C.) and mixed well, then 2.5 mM of fresh prepared probenecid, was added and mixed well. 20 μl/well of loading dye was added on top of the cells, and incubated at 37° C. for 1 hour 30 min.
Assay buffer preparation: 1×HBSS, 2 mM HEPES, 0.1% BSA plus 2.5 mM freshly prepared probenecid (Invitrogen, #P36400). 25 μl/well assay buffer in 384 well clear plate (cat #782281, Greiner Bio-one) was dispensed with buffer distributor (Multidrop ComB1 from Thermo Scientific). The compounds were in 384 Echo plate (cat #LPL0200, Labcyte) and the starting concentration of compound was 10 mM, then 1 to 3 serial dilution in 100% DMSO, 8 ul/well). 125 nl compounds was transferred to the 384 well plate containing 25 μl/well buffer with Echo® 555 Liquid Handler (Labcyte), such that the compound concentration was 5 fold of final concentration. The plate was shook slowly at 40 rpm/min for 10 min to mix. 10 μl of 5 fold compound in the buffer was transferred to the cell plate (containing 20 μl cells and 20 μl dye) using Vertical Pipetting Station 384ST (Agilent Technologies). Six fold of final concentration of NADA (N-arachidonyl dopamine, cat #A8848, Sigma) in the assay buffer was prepared and 30 μl/well was distributed in 384 well clear plate.
After compounds were added to the cell plate with loading dye, within 10-15 minutes, cell plate and plate containing NADA was placed into the FLIPR (Fluorescent Imaging Plate Reader) instrument (Tetra System, Molecular device). The TRPV1 receptor was stimulated by application of 10 μl per well of NADA. For testing the effect of compounds for possible antagonism, 2.5 μM NADA was used at the EC80 concentration.
For determination of antagonist IC50 values (concentration of antagonist that inhibits response to NADA by 50%), at least 10 antagonist concentration were measured in triplicate. The response in the presence of the antagonist was calculated as a percentage of the control response to NADA and was plotted against the concentration of the antagonist. The IC50 was estimated by non-linear regression analysis to sigmoidal-logistic curves by HELIOS (PROD 2) system. These values were averaged (means and standard error of the mean) for at least three independent experiments.

SMILES | IC50 [µM]
Cc1cc(C)cc(O[C@H]2C[C@H](NCc3c(F)ccc4cnccc34)C2)c1 [Example 84, (1r,3r)-3-(3,5-dimethylphenoxy)-N-((6-fluoroisoquinolin-5-yl)methyl)cyclobutan-1-amine, HCl] | 0.722
Fc1ccc(CO[C@H]2C[C@H](NCc3c(F)ccc4cnccc34)C2)cc1F [Example 78, (1r,3r)-3-((3,4-difluorobenzyl)oxy)-N-((6-fluoroisoquinolin-5-yl)methyl)cyclobutan-1-amine] | 0.77
OCCC(CO)c1cc(F)c(CN[C@H]2C[C@H](Oc3ccc(F)c(C(F)(F)F)c3)C2)c2ccncc12 (stereo partly drawn) [Example 77, 2-(6-fluoro-5-((((1r,3r)-3-(4-fluoro-3-(trifluoromethyl)phenoxy)cyclobutyl)amino)methyl)isoquinolin-8-yl)butane-1,4-diol] | 0.691
Fc1ccc2cnccc2c1CN[C@H]1C[C@H](Oc2cccc(C3CC3)c2)C1 [Example 88, (1r,3r)-3-(3-cyclopropylphenoxy)-N-((6-fluoroisoquinolin-5-yl)methyl)cyclobutan-1-amine, HCl] | 0.0952
Cc1ccc2cnccc2c1CN[C@H]1C[C@H](Oc2ccc(C(F)(F)F)nc2)C1 [Example 2, (1r,3r)-N-((6-methylisoquinolin-5-yl)methyl)-3-((6-(trifluoromethyl)pyridin-3-yl)oxy)cyclobutan-1-amine, HCl] | 0.711
N#Cc1ccc(O[C@H]2C[C@H](NCc3c(F)ccc4cnccc34)C2)c(F)n1 [Example 75, 6-fluoro-5-((1r,3r)-3-(((6-fluoroisoquinolin-5-yl)methyl)amino)cyclobutoxy)picolinonitrile, HCl] | 0.269
Nc1ccc(CN[C@H]2C[C@H](Oc3ccc(F)c(C(F)(F)F)c3)C2)c2ccncc12 [Example 5, 5-((((1r,3r)-3-(4-fluoro-3-(trifluoromethyl)phenoxy)cyclobutyl)amino)methyl)isoquinolin-8-amine, HCl] | 0.259
FCc1cc(O[C@H]2C[C@H](NCc3c(F)ccc4cnccc34)C2)ccc1F [Example 41, (1r,3r)-3-(4-fluoro-3-(fluoromethyl)phenoxy)-N-((6-fluoroisoquinolin-5-yl)methyl)cyclobutan-1-amine, HCl] | 0.09
OCC[C@@H](O)c1cc(F)c(CN[C@H]2C[C@H](Oc3ccc(F)c(C(F)(F)F)c3)C2)c2ccncc12 (single isomer, unassigned; peak 2) [Example 9 peak 2] | 0.0137
CCOC(=O)c1cccc(O[C@H]2C[C@H](NCc3c(F)ccc4cnccc34)C2)c1 [Example 34, ethyl 3-((1r,3r)-3-(((6-fluoroisoquinolin-5-yl)methyl)amino)cyclobutoxy)benzoate, HCl] | 0.0836
OCc1cc(F)c(CN[C@H]2C[C@@H](Oc3ccc(F)c(C(F)(F)F)c3)C2)c2ccncc12 [Example 89, (6-fluoro-5-((((1s,3s)-3-(4-fluoro-3-(trifluoromethyl)phenoxy)cyclobutyl)amino)methyl)isoquinolin-8-yl)methanol, HCl] | 0.44
Fc1ccc2cnccc2c1CN[C@H]1C[C@H](Oc2ccc(C(F)(F)F)nc2F)C1 [Example 58, (1r,3r)-3-((2-fluoro-6-(trifluoromethyl)pyridin-3-yl)oxy)-N-((6-fluoroisoquinolin-5-yl)methyl)cyclobutan-1-amine] | 0.0829
